# Test results published in ChEMBL document CHEMBL5724914, “Linking interpersonal differences in gut microbiota composition and drug biotransformation activity” (2024).
# Assays:
# [1] = The drug is tested on WLS-027 corresponding to human gut metagenome with ENA study accession number: PRJEB37062 and ENA sample accession number: ERS12561744 for biotransformation under anaerobic condition. The drug concentrations were measured over 9 timepoints collected between 0 and 24 hours of incubation by liquid-chromatography-coupled mass spectrometry (LC–MS); conditions: 2 µM
# [2] = The drug is tested on Z-003 corresponding to pig gut metagenome with ENA study accession number: PRJEB37062 and ENA sample accession number: ERS12561803 for biotransformation under anaerobic condition. The drug concentrations were measured over 9 timepoints collected between 0 and 24 hours of incubation by liquid-chromatography-coupled mass spectrometry (LC–MS); conditions: 2 µM
# [3] = The drug is tested on Z-029 corresponding to rat gut metagenome with ENA study accession number: PRJEB37062 and ENA sample accession number: ERS12561828 for biotransformation under anaerobic condition. The drug concentrations were measured over 9 timepoints collected between 0 and 24 hours of incubation by liquid-chromatography-coupled mass spectrometry (LC–MS); conditions: 2 µM
# [4] = human gut metagenome, 24 h, 2 µM
# [5] = human gut metagenome, 24 h, 2 µM; remark: listed apart in the source
# [6] = The drug is tested on WLS-170 corresponding to human gut metagenome with ENA study accession number: PRJEB37062 and ENA sample accession number: ERS12561762 for biotransformation under anaerobic condition. The drug concentrations were measured over 9 timepoints collected between 0 and 24 hours of incubation by liquid-chromatography-coupled mass spectrometry (LC–MS); conditions: 2 µM
# [7] = human gut metagenome, 24 h, 2 µM; remark: listed apart in the source
# [8] = human gut metagenome, 24 h, 2 µM; remark: listed apart in the source
# [9] = The drug is tested on Z-021 corresponding to metagenome with ENA study accession number: PRJEB37062 and ENA sample accession number: ERS12561820 for biotransformation under anaerobic condition. The drug concentrations were measured over 9 timepoints collected between 0 and 24 hours of incubation by liquid-chromatography-coupled mass spectrometry (LC–MS); conditions: 2 µM
# Note: call rule not given here.
Structure (SMILES),Bacterial Biotransformation [1],Bacterial Biotransformation [2],Bacterial Biotransformation [3],Bacterial Biotransformation [4],Bacterial Biotransformation [5],Bacterial Biotransformation [6],Bacterial Biotransformation [7],Bacterial Biotransformation [8],Bacterial Biotransformation [9]
COc1ccc(CN2CCNCC2)c(OC)c1OC.Cl.Cl [TRIMETAZIDINE DIHYDROCHLORIDE],Compound NOT metabolized,Compound NOT metabolized,Compound NOT metabolized,Compound NOT metabolized,Compound NOT metabolized,Compound NOT metabolized,Compound NOT metabolized,Compound NOT metabolized,Compound NOT metabolized
COc1ccnc(C[S+]([O-])c2nc3ccc(OC(F)F)cc3[nH]2)c1OC (configuration not stated) [PANTOPRAZOLE],Compound metabolized,Compound NOT metabolized,Compound metabolized,Compound metabolized,Compound metabolized,Compound metabolized,Compound metabolized,Compound metabolized,Compound metabolized
CCOC(=O)[C@H](CCc1ccccc1)N[C@@H](C)C(=O)N1Cc2ccccc2C[C@H]1C(=O)O,Compound metabolized,Compound metabolized,Compound NOT metabolized,Compound metabolized,Compound metabolized,Compound metabolized,Compound metabolized,Compound metabolized,Compound NOT metabolized
CN(C/C=C/C#CC(C)(C)C)Cc1cccc2ccccc12 [TERBINAFINE],Compound NOT metabolized,Compound NOT metabolized,Compound NOT metabolized,Compound NOT metabolized,Compound NOT metabolized,Compound metabolized,Compound NOT metabolized,Compound NOT metabolized,Compound NOT metabolized
C[C@]12C=CC(=O)C=C1CC[C@@H]1[C@@H]2C(=O)C[C@@]2(C)[C@H]1CC[C@]2(O)C(=O)CO [PREDNISONE],Compound metabolized,Compound metabolized,Compound metabolized,Compound metabolized,Compound metabolized,Compound metabolized,Compound metabolized,Compound metabolized,Compound metabolized
CC[C@H](C)C(=O)O[C@H]1CCC=C2C=C[C@H](C)[C@H](CC[C@@H]3C[C@@H](O)CC(=O)O3)[C@H]21 [MEVASTATIN],Compound metabolized,Compound NOT metabolized,Compound NOT metabolized,Compound metabolized,Compound metabolized,Compound metabolized,Compound NOT metabolized,Compound metabolized,Compound NOT metabolized
CN(C)CCC=C1c2ccccc2COc2ccccc21 [DOXEPIN],Compound metabolized,Compound NOT metabolized,Compound NOT metabolized,Compound metabolized,Compound NOT metabolized,Compound metabolized,Compound NOT metabolized,Compound NOT metabolized,Compound NOT metabolized
N#Cc1ccc2[nH]cc(CCCCN3CCN(c4ccc5oc(C(N)=O)cc5c4)CC3)c2c1 [VILAZODONE],Compound metabolized,Compound metabolized,Compound NOT metabolized,Compound metabolized,Compound metabolized,Compound metabolized,Compound metabolized,Compound metabolized,Compound metabolized
